Assay results: patent US10294229B2, “Heteroaryl substituted aminopyridine compounds” (BRISTOL-MYERS SQUIBB COMPANY, priority 2015, dated 2019)

Columns and labels:
[1] = test system: Human whole blood stimulated with a TLR2 agonist (lipoteichoic acid), IL-6 levels; experiment: IRAK4 Whole Blood Assay; type: cell-based; conditions: lipoteichoic acid 10 μg/mL
Procedure, shortened: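 ACD-A-anticoagulated human whole blood was preincubated with compounds for 60 min at 37 °C under 5% CO2. It was then stimulated with 10 μg/mL lipoteichoic acid (final) in RPMI for 5 h. IL-6 in plasma supernatants was measured by flow cytometry bead assay.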

[2] = molecular target: IRAK4 (Homo sapiens (Human), UniProt Q9NWZ3); experiment: IRAK4 Inhibition Assay; type: biochemical; conditions: ATP 500 μM; IRAK4 0.6 nM
Procedure, shortened: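 Enzyme 0.6 nM, ATP 500 μM, FL-peptide 1.5 μM, DMSO 1.6%; HEPES pH 7.2/MgCl2/Brij 35/DTT buffer. RT, 60 min, EDTA stop. Mobility-shift product/substrate ratio; % inhib vs no-enzyme and vehicle controls.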

IRAK4, sequence (Q9NWZ3 whole entry, species assumed): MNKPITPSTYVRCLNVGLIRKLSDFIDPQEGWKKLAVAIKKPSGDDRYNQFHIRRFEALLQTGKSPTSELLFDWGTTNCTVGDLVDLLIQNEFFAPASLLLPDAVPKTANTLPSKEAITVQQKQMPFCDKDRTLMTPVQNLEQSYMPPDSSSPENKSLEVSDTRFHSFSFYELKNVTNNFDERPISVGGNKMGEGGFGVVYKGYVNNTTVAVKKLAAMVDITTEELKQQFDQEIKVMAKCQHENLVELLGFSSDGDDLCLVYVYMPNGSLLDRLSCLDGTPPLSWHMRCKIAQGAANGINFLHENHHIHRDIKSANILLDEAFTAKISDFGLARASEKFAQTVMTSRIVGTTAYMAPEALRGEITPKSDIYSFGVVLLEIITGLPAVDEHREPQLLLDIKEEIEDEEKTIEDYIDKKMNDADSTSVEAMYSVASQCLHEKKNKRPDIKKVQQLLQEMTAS

EC50 ([1]; Homo sapiens) [µM] | IC50 [2] [µM] | EC50 [1] [µM] | SMILES
1.77 | 0.018 | – | CC(C)Nc1cc(-n2ncc3cc(C#N)cnc32)ncc1-c1cn([C@@H](CO)c2ccccc2)nn1 [Example 86, (R)-1-(5-(1-(2-hydroxy-1-phenylethyl)-1H-1,2,3-triazol-4-yl)-4-(isopropylamino)pyridin-2-yl)-1H-pyrazolo[3,4-b]pyridine-5-carbonitrile]
0.6 | 0.014 | – | CCCn1cc(-c2cnc(-n3ncc4cc(C#N)cnc43)cc2Nc2cnn(CC(F)F)c2)cn1 [Example 256, 1-(4-((1-(2,2-difluoroethyl)-1H-pyrazol-4-yl)amino)-5-(1-propyl-1H-pyrazol-4-yl)pyridin-2-yl)-1H-pyrazolo[3,4-b]pyridine-5-carbonitrile]
0.59 | 0.01 | – | CC(C)Nc1cc(-n2ncc3cc(C#N)cnc32)ncc1-c1cn(CC2CC2)cn1 [Example 229, 1-(5-(1-(cyclopropylmethyl)-1H-imidazol-4-yl)-4-(isopropylamino)pyridin-2-yl)-1H-pyrazolo[3,4-b]pyridine-5-carbonitrile]
0.93 | 0.003 | – | CCCCc1cn(-c2cnc(-n3ncc4cc(C#N)cnc43)cc2NC(C)C)nn1 [Example 320, 1-(5-(4-butyl-1H-1,2,3-triazol-1-yl)-4-(isopropylamino)pyridin-2-yl)-1H-pyrazolo[3,4-b]pyridine-5-carbonitrile]
1.04 | 0.008 | – | CC(C)Nc1cc(-n2ncc3cc(C#N)cnc32)ncc1-c1cn([C@H]2CCN(C(=O)c3ccncc3)C[C@H]2O)nn1 [Example 185, 1-(5-(1-((3R,4S)-3-hydroxy-1-isonicotinoylpiperidin-4-yl)-1H-1,2,3-triazol-4-yl)-4-(isopropylamino)pyridin-2-yl)-1H-pyrazolo[3,4-b]pyridine-5-carbonitrile]
– | 0.009 | 0.41 | CC(C)(O)CCc1cn(-c2cnc(-n3ncc4cc(C#N)cnc43)cc2NC2CCOC2)nn1 [Example 366, (S)-1-(5-(4-(3-hydroxy-3-methylbutyl)-1H-1,2,3-triazol-1-yl)-4-((tetrahydrofuran-3-yl)amino)pyridin-2-yl)-1H-pyrazolo[3,4-b]pyridine-5-carbonitrile]
1.37 | 0.01 | – | CC(C)Nc1cc(-n2cnc3cc(C#N)cnc32)ncc1-c1cn(C[C@H](C)O)nn1 [Example 69, (S)-3-(5-(1-(2-hydroxypropyl)-1H-1,2,3-triazol-4-yl)-4-(isopropylamino)pyridin-2-yl)-3H-imidazo[4,5-b]pyridine-6-carbonitrile]
0.34 | 0.001 | – | CC(C)Nc1cc(-n2ncc3cc(C#N)cnc32)ncc1-c1cc(CCC(C)(C)O)no1 [Example 426, 1-(5-(3-(3-hydroxy-3-methylbutyl)isoxazol-5-yl)-4-(isopropylamino)pyridin-2-yl)-1H-pyrazolo[3,4-b]pyridine-5-carbonitrile]
6.4 | 0.017 | – | CCCc1cn(-c2cnc(-n3cnc4cc(C#N)cnc43)cc2N[C@@H](C)CO)nn1 [Example 285, (S)-3-(4-((1-hydroxypropan-2-yl)amino)-5-(4-propyl-1H-1,2,3-triazol-1-yl)pyridin-2-yl)-3H-imidazo[4,5-b]pyridine-6-carbonitrile]
20 | 0.007 | – | CC(C)Nc1cc(-n2ncc3cc(C#N)cnc32)ncc1-c1cn(-c2ccccc2F)nn1 [Example 20, 1-(5-(1-(2-fluorophenyl)-1H-1,2,3-triazol-4-yl)-4-(isopropylamino)pyridin-2-yl)-1H-pyrazolo [3,4-b]pyridine-5-carbonitrile]
0.21 | 0.003 | – | CC(C)Nc1cc(-n2ncc3cc(C#N)cnc32)ncc1-c1cn(CCS(C)(=O)=O)nn1 [Example 116, 1-(4-(isopropylamino)-5-(1-(2-(methylsulfonyl)ethyl)-1H-1,2,3-triazol-4-yl)pyridin-2-yl)-1H-pyrazolo[3,4-b]pyridine-5-carbonitrile]
